Experimental findings from PubChem BioAssay (NCI) are described below.

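Growth conditions: 96-well plates. Treatment: test compound, 48 hours, 5 concentrations. Analysis: linear interpolation between bracketing concentrations; unreached endpoints set to highest concentration. Abbreviation: GI50, concentration required for 50% inhibition of growth. Definition used: TGI = concentration required for complete inhibition of growth.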

Some test systems named below: SF-295 CNS; NCI-H460 lung; SK-MEL-5 melanoma; OVCAR-3 ovarian; UACC-257 melanoma; U251 CNS; HCT-116 colon; PC-3 prostate; M14 melanoma; CCRF-CEM leukemia.
What all share (test): DTP human tumour cell line panel, 48 h

The term TGI denotes the concentration at which net growth stops. Low readings indicate more potent growth arrest, high ones less potent growth arrest. Usually GI50 stands for the concentration that inhibits growth by half.

As to `Clc1ccccc1-c1nc(-c2ccncc2)no1`, the concentration for total growth inhibition (TGI) is over 100 µM in the assay on SF-295 CNS; over 100 µM in the assay with NCI-H460 lung; 56.4 µM in the assay with SK-MEL-5 melanoma; over 100 µM in the assay on OVCAR-3 ovarian; over 100 µM in the assay on UACC-257 melanoma; over 100 µM in the assay on U251 CNS. The TGI in the assay with HCT-116 colon, in the assay on PC-3 prostate and in the assay on M14 melanoma was over 100 µM in each case.

On to `Cc1cc(S(N)(=O)=O)c(S/C(=N\Nc2ccc([N+](=O)[O-])cc2)c2ccc(O)cc2)cc1Cl`, for which the GI50 with SF-295 CNS is 2.07 µM; in the assay on NCI-H460 lung, 2.94 µM; with SK-MEL-5 melanoma, 1.86 µM; with OVCAR-3 ovarian, 2.06 µM; with UACC-257 melanoma it was 5.22 µM; in the assay with U251 CNS, 2.87 µM. Besides, the GI50 in the assay on HCT-116 colon is 2.89 µM; with PC-3 prostate, 3.26 µM; with M14 melanoma, 2.61 µM. Moreover, the TGI in the assay on SF-295 CNS was determined as 3.92 µM; in the assay with NCI-H460 lung, 10.1 µM; in the assay with SK-MEL-5 melanoma it was 3.38 µM; in the assay with OVCAR-3 ovarian it was 4.04 µM; with UACC-257 melanoma, 19.3 µM; in the assay with U251 CNS, 11.1 µM. The concentration for total growth inhibition (TGI) stood at 10.6 µM in the assay with HCT-116 colon, 8.55 µM with PC-3 prostate and 7.15 µM in the assay on M14 melanoma.

Take `O=C1NC2(CCCC2)/C(=N\O)C12CCCC2`: the TGI in the assay on SF-295 CNS, with NCI-H460 lung, with SK-MEL-5 melanoma, in the assay with OVCAR-3 ovarian, in the assay on UACC-257 melanoma and in the assay with CCRF-CEM leukemia was over 100 µM throughout. In addition, the concentration for total growth inhibition (TGI) in the assay with U251 CNS, in the assay on HCT-116 colon and in the assay on M14 melanoma was over 100 µM each time.

In the case of `CC1(C(=O)NCCN(CCNC(=O)C2(C)CC3(C)CC(C)(C2)C(=O)NC3=O)CCNC(=O)C2(C)CC3(C)CC(C)(C2)C(=O)NC3=O)CC2(C)CC(C)(C1)C(=O)NC2=O` (configuration not stated), the TGI with SF-295 CNS, in the assay with NCI-H460 lung, with OVCAR-3 ovarian, with UACC-257 melanoma, in the assay with CCRF-CEM leukemia and in the assay on U251 CNS was over 100 µM in each case. Further, the TGI in the assay with HCT-116 colon and with M14 melanoma was over 100 µM each time.

Regarding `Cc1cc2c(=O)cc(-c3ccc(C(F)(F)F)cc3)oc2c(C(=O)O)c1C`, the TGI in the assay with SF-295 CNS, with NCI-H460 lung, with SK-MEL-5 melanoma, with OVCAR-3 ovarian, in the assay on UACC-257 melanoma and with CCRF-CEM leukemia was over 100 µM throughout. In addition, the TGI in the assay with U251 CNS, in the assay with HCT-116 colon and in the assay on M14 melanoma was over 100 µM each time.

With `C=CC[N+]1(CCO)CCN=C1CCCCCCCCCCCCC` (configuration not stated), the GI50 was 1.81 µM in the assay with SF-295 CNS; 1.7 µM with NCI-H460 lung; 1.6 µM in the assay with SK-MEL-5 melanoma; 1.76 µM with UACC-257 melanoma; 1.33 µM in the assay on U251 CNS; 1.4 µM in the assay with HCT-116 colon. For the same compound, the GI50 in the assay on PC-3 prostate was 1.37 µM; with M14 melanoma, 1.64 µM. Moreover, the concentration for total growth inhibition (TGI) was 3.3 µM in the assay on SF-295 CNS; 3.06 µM in the assay on NCI-H460 lung; 2.95 µM in the assay on SK-MEL-5 melanoma; 3.27 µM with UACC-257 melanoma; 2.6 µM in the assay with U251 CNS; 2.69 µM with HCT-116 colon. Besides, the total growth inhibition concentration (TGI) with PC-3 prostate worked out at 2.85 µM; in the assay on M14 melanoma, 2.99 µM.

As to `O=C(c1ccccn1)c1nc(-c2ccc(Cl)c(Cl)c2)nc2ccc(Cl)cc12`, the concentration for total growth inhibition (TGI) in the assay with SF-295 CNS, in the assay with NCI-H460 lung, with SK-MEL-5 melanoma, in the assay with OVCAR-3 ovarian, in the assay on UACC-257 melanoma and with CCRF-CEM leukemia was over 100 µM throughout. The results for the TGI with U251 CNS, with HCT-116 colon and with M14 melanoma were over 100 µM, 33.4 µM and over 100 µM, respectively.

For `Clc1ccccc1C1N2CCCCC2[C@@H]2c3[nH]c4ccccc4c3CCN12` (some centres not stated), the TGI with SF-295 CNS worked out at 58.9 µM; in the assay on NCI-H460 lung, 35.6 µM; in the assay with OVCAR-3 ovarian, 32.6 µM; with UACC-257 melanoma, 42.2 µM; with CCRF-CEM leukemia, 52.9 µM; with U251 CNS, 31.9 µM. For the same compound, the concentration for total growth inhibition (TGI) in the assay on HCT-116 colon was found to be 32.6 µM; in the assay on M14 melanoma, 31.3 µM.

For `NCCn1ccc(NC(c2ccccc2)(c2ccccc2)c2ccccc2)nc1=O`, the total growth inhibition concentration (TGI) is 36.1 µM in the assay on SF-295 CNS; 37.9 µM in the assay with NCI-H460 lung; 52.6 µM with OVCAR-3 ovarian; 36.2 µM with UACC-257 melanoma; 39.4 µM in the assay with U251 CNS; 35.5 µM in the assay on HCT-116 colon.

For `COc1cc[c]([Sb]([Br])([CH]=C(C)C)([CH]=C(C)C)[CH]=C(C)C)cc1`, the GI50 with SF-295 CNS was 18.4 µM; in the assay on NCI-H460 lung, 6.61 µM; in the assay on SK-MEL-5 melanoma, 3.03 µM; in the assay with UACC-257 melanoma, 3.45 µM; in the assay with CCRF-CEM leukemia, 5.65 µM; in the assay on U251 CNS, 9.37 µM. Also, the GI50 in the assay on HCT-116 colon was 4.78 µM; with M14 melanoma it was 6.29 µM. Also, the total growth inhibition concentration (TGI) in the assay on SF-295 CNS is 87.2 µM; in the assay on NCI-H460 lung it was 54.5 µM; in the assay with SK-MEL-5 melanoma, 9.92 µM; in the assay with UACC-257 melanoma, over 100 µM; with CCRF-CEM leukemia, over 100 µM; in the assay with U251 CNS, 72.8 µM. Further, the TGI in the assay with HCT-116 colon was 73.7 µM; with M14 melanoma, 42.5 µM.

Consider `C/C=C/C(=O)[C@@H](O)C(C)C`, for which the TGI in the assay with SF-295 CNS, with SK-MEL-5 melanoma, in the assay with OVCAR-3 ovarian, with UACC-257 melanoma, with U251 CNS and in the assay with HCT-116 colon was over 100 µM in each case.

As to `CN(C)CCNC(=O)c1cccc2ccc(-c3cccnc3)nc12`, the concentration for total growth inhibition (TGI) in the assay with SF-295 CNS is 24.1 µM; with NCI-H460 lung it was over 100 µM; with SK-MEL-5 melanoma, 12.9 µM; in the assay on OVCAR-3 ovarian, 36.9 µM; with UACC-257 melanoma, 15 µM; in the assay with CCRF-CEM leukemia it was over 100 µM. Moreover, the total growth inhibition concentration (TGI) is 19.3 µM in the assay on U251 CNS, 13.1 µM with HCT-116 colon and 20.7 µM in the assay with M14 melanoma.

In the case of `CCCCNC(=O)OCC(COc1ccccc1OC)OC(=O)NCCCC` (configuration not stated), the concentration for total growth inhibition (TGI) with SF-295 CNS, in the assay with NCI-H460 lung, with SK-MEL-5 melanoma, with OVCAR-3 ovarian, in the assay on UACC-257 melanoma and in the assay with CCRF-CEM leukemia was over 100 µM throughout. Moreover, the TGI in the assay on U251 CNS, with HCT-116 colon and with M14 melanoma was over 100 µM in each case.
